Measured values: US7754701B2, “Difructose anhydride-containing composition and use thereof” (Fancl Corporation, priority 2002, dated 2010)
Where “and” joins values, the source holds several entries; their conditions need not be identical. Equal entries are not always repeated.

How the values were obtained:
[1] = system: Streptococcus mutans MT 8148; assay: Acid production by Streptococcus mutans (Example 9), strain MT 8148; format: cell-based; conditions: 10 ml of 5% solution added to 2 ml cell suspension, 37° C., FIG. 6
Experimental: (§1) Dental caries causative bacteria (Streptococcus mutans) MT 8148 and 6715 strains provided by a microbial lineage storage laboratory of The Institute of Physical Chemical Research (Riken) were cultured on a brain heart infusion broth medium overnight and then cells were collected by centrifugation. The cells were washed twice with a phosphate buffered (5 mM) physiological saline solution (pH 7.0) and then suspended in the same saline solution. Ten milliliters each of 5% DFA III, sorbitol, palatinose, xylitol, and sucrose solutions were added to 2 ml of this concentrated cell suspension. Immediately, reaction was carried out at 37° C. and then change with time in pH of each reaction mixture was measured.

[2] = Effectiveness on defecation in human; format: in vivo; conditions: 3 g once a day for one month; for Feeling of defecation: Much better (number of subjects) / Feeling of defecation: No change (number of subjects) / Feeling of defecation: Slightly better (number of subjects) / Feeling of defecation: Slightly worse (number of subjects) / Feeling of defecation: Worse (number of subjects) / Stool properties, change observed: Constipation (worse after ingestion; number of subjects) / Stool properties, change observed: Normal stool (number of subjects) / Stool properties, change observed: Soft stool (number of subjects) / Stool properties, change observed: Solid stool (number of subjects) / Stool properties: No change (number of subjects): fifty adults; for Stool properties, change observed: Diarrhea (number of subjects): fifty adults with tendency of constipation
Experimental: Fifty adults who were healthy but aware of their poor stool frequency and tendency of constipation were given with 3 g of DFA III, 3 g of melibiose or 3 g of placebo (starch) once a day for one month. The defecation condition was recorded and stool properties and feeling of defecation were studied.

[3] = system: small intestines (jejunum and ileum) and large intestines (cecum and colon) mucous membrane specimen; assay: Magnesium absorption in Ussing chamber; design: species or system rat; conditions: DFA III 0, 1, 10, 100 mM on mucous membrane side, 37° C., 30 minutes, FIG. 1
Experimental: Acceleration of magnesium absorption by DFA III was confirmed by using an Ussing chamber as follows.
In this experiment, 7 to 8 weeks old Sprague-Dawley male rats (with an average body weight of about 260 g) were used.
The rats were purchased at 6 weeks of age (Japan SLC) and fed on a commercial solid feed (CE-2, Japan CLEA) until the start of the experiment.
On the day of the experiment, rats were injected intraperitoneally with sodium pentobarbital and the small intestines (cejunum and ileum) and the large intestines (cecum and colon) were extracted under the anaesthetization. Contents of each of the intestines were removed, the intestines were opened, and the serous membrane and the layer of smooth muscle were peeled off to prepare a specimen comprising the mucous membrane and submucosal tissue, which was then loaded onto an Ussing chamber (with an effective area of 0.67 cm^2).
Separately, a buffer solution for the mucous membrane side and a buffer solution for serous membrane side were prepared. The buffer solution for mucous membrane side was basically comprised of the following ingredients. […]
After the incubation was completed, the solution of serous membrane side was recovered and the Mg concentration in the solution was measured using a commercial kit (Wako Pure Chemicals). […]

[4] = system: small intestines (jejunum and ileum) and large intestines (cecum and colon) mucous membrane specimen; assay: Zinc absorption in Ussing chamber; design: species or system rat; conditions: DFA III 0 to 100 mM, FIG. 2
[5] = system: small intestines (jejunum and ileum) and large intestines (cecum and colon) mucous membrane specimen; assay: Copper absorption in Ussing chamber; design: species or system rat; conditions: DFA III 0 to 100 mM, FIG. 3
serum osteocalcin [6] = assay: Bone formation in human: serum osteocalcin, DFA III with calcium lactate (Example 4); format: in vivo; conditions: 3 g DFA III and 0.77 g calcium lactate 3 times a day for 1 week vs calcium lactate alone; six healthy adult males; FIG. 4
Experimental: Six healthy adult males were administered with 3 g of DFA III and 0.77 g of calcium lactate or 0.77 g of placebo (calcium lactate) 3 times a day for 1 week to study the change in serum osteocalcin concentration.

serum osteocalcin [7] = assay: Bone formation in human: serum osteocalcin, DFA III with calcium carbonate (Example 5); format: in vivo; conditions: 1 g DFA III and 0.25 g calcium carbonate 3 times a day for 2 weeks vs calcium carbonate alone; fourteen healthy adult males; FIG. 5
Experimental: Fourteen healthy adult males were administered with 1 g of DFA III and 0.25 g of calcium carbonate or 0.25 g of placebo (calcium carbonate) 3 times a day for 2 weeks to study the change in serum osteocalcin concentration.

serum osteocalcin [8] = assay: Bone formation in human: serum osteocalcin, DFA III alone (Example 6); format: in vivo; conditions: 3 g DFA III 3 times a day for 2 weeks
Experimental: Twenty-three healthy adult males and females on normal diet were administered with 3 g of DFA III 3 times a day for 2 weeks to study the change in serum osteocalcin concentration.

[9] = Diuretic test using DFA III; format: in vivo, human
Text: DFA III was made into granules to make a granular food product. Since granulation was possible without excipient, the DFA content was 100%. Six healthy males were given with 1 g/day of this granular food product together with water consecutively for 1 week in the first period of the test. Then, after a week of the washout period, the same 6 healthy subjects were given with 1 g/day of sugar together with water consecutively for 1 week in the second period of the test.
During the test periods, all subjects lived under the same environment, doing the same level of exercise and taking the same amount of diet and drinking water. The whole volume of urine excreted during the test periods was recovered and the volume was measured to obtain a daily average urine volume to compare the two test periods.

[10] = system: Streptococcus mutans MT 8148; assay: Acid production by Streptococcus mutans, DFA and palatinose (Example 10), strain MT 8148; format: cell-based; conditions: 10 ml of 1% solution added to 2 ml cell suspension, 37° C., FIG. 7
Experimental: as §1, with “a 1% palatinose solution, 1%” for “5%”, “a 1% palatinose solution with 1% DFA III added” for “sorbitol, palatinose, xylitol, and sucrose solutions”

mice = assay: Acute toxicity test in mice; format: in vivo; conditions: 10 days, 1000 mg/kg of oral administration
Text: Further, DFA, an effective component of the invention, has no problem in its safety.

OC[C@H]1O[C@@](CO)(O[C@H]2O[C@H](CO)[C@@H](O)[C@H](O)[C@H]2O)[C@@H](O)[C@@H]1O [sucrose]
acid production (change with time in pH of reaction mixture) [1]: evidently lowered the pH

OC[C@H]1O[C@H](OCC2O[C@@H](O)[C@H](O)[C@@H](O)[C@@H]2O)[C@H](O)[C@@H](O)[C@H]1O (stereo partly shown) [melibiose]
Feeling of defecation: Much better (number of subjects) [2]: 22 | Feeling of defecation: No change (number of subjects) [2]: 0 | Feeling of defecation: Slightly better (number of subjects) [2]: 28 | Feeling of defecation: Slightly worse (number of subjects) [2]: 0 | Feeling of defecation: Worse (number of subjects) [2]: 0 | Stool properties, change observed: Constipation (worse after ingestion; number of subjects) [2]: 0 | Stool properties, change observed: Normal stool (number of subjects) [2]: 40 | Stool properties, change observed: Soft stool (number of subjects) [2]: 8 | Stool properties, change observed: Solid stool (number of subjects) [2]: 2 | Stool properties: No change (number of subjects) [2]: 0 | Stool properties, change observed: Diarrhea (number of subjects) [2]: 0

OC[C@@H](O)[C@@H](O)[C@H](O)[C@@H](O)CO [sorbitol]
acid production (change with time in pH of reaction mixture) [1]: almost no acid

OC[C@H]1O[C@@]2(CO[C@]3(CO)O[C@H](CO)[C@@H](O)[C@@H]3O2)[C@@H](O)[C@@H]1O [DFA III, difructose anhydride III]
Mg absorption (net rate, mucous to serous membrane side) [3]: evidently increased | Zn absorption (net rate, mucous to serous membrane side) [4]: evidently increased | Cu absorption (net rate, mucous to serous membrane side) [5]: evidently increased | level of osteocalcin (serum), change (serum osteocalcin [6]): increased more | level of osteocalcin (serum), change (serum osteocalcin [7]): increased more | level of osteocalcin, change by ingestion (serum osteocalcin [8]; no added calcium): increased | Serum osteocalcin concentration, After ingestion (serum osteocalcin [8]; 23 healthy adults on normal diet, Average ± SD): 5.7 ± 1.5 ng/mL | Serum osteocalcin concentration, Before ingestion (serum osteocalcin [8]; 23 healthy adults on normal diet, Average ± SD, *p < 0.1): 7.0 ± 2.0* ng/ml | Average daily urine volume ([9]; 1 g/day DFA III granular food product with water for 1 week, individual subjects A-F, healthy males): 2600 mL and 2950 mL and 2560 mL and 2850 mL and 3010 mL and 2050 mL | abnormal subjective findings ([9]; 1 g/day for 1 week): no abnormal subjective findings | average daily urine volume, first vs second test period ([9]; all individual subjects, DFA III 1 g/day vs sugar 1 g/day): evidently greater | biochemical blood tests (liver function, renal function, blood pressure, blood cell counts, total Chol, TG) ([9]; first test period (DFA III) vs second test period (sugar)): the same | Feeling of defecation: Much better (number of subjects) [2]: 23 | Feeling of defecation: No change (number of subjects) [2]: 0 | Feeling of defecation: Slightly better (number of subjects) [2]: 27 | Feeling of defecation: Slightly worse (number of subjects) [2]: 0 | Feeling of defecation: Worse (number of subjects) [2]: 0 | Stool properties, change observed: Constipation (worse after ingestion; number of subjects) [2]: 0 | Stool properties, change observed: Normal stool (number of subjects) [2]: 39 | Stool properties, change observed: Soft stool (number of subjects) [2]: 7 | Stool properties, change observed: Solid stool (number of subjects) [2]: 3 | Stool properties: No change (number of subjects) [2]: 0 | Stool properties, change observed: Diarrhea (number of subjects) [2]: 0 | acid production (change with time in pH of reaction mixture) [1]: almost no acid | acid production (change with time in pH of reaction mixture) [10]: almost no acid was produced | acute toxicity (death) (mice): no death

OC[C@H]1O[C@H](OC[C@H]2OC(O)(CO)[C@@H](O)[C@@H]2O)[C@H](O)[C@@H](O)[C@@H]1O (stereo partly shown) [palatinose, reference compound]
acid production (change with time in pH of reaction mixture) [1]: almost no acid | acid production (change with time in pH of reaction mixture) [10]: acid was produced

OC[C@@H](O)[C@H](O)[C@@H](O)CO [xylitol]
acid production (change with time in pH of reaction mixture) [1]: almost no acid

OC[C@H]1O[C@@](CO)(O[C@H]2O[C@H](CO)[C@@H](O)[C@H](O)[C@H]2O)[C@@H](O)[C@@H]1O [sugar, reference compound]
Average daily urine volume ([9]; 1 g/day sugar with water for 1 week after 1 week washout, same subjects A-F): 1620 mL and 1760 mL and 1650 mL and 1250 mL and 1850 mL and 1520 mL
